Source: DBAASP
Values after ≈ are worked out from the molar mass of the structure shown. One block for each compound: values may come before it.

Experiments:
Experiment in all cases: ≥ marks a high value that may be exact or a test limit, other limits are often not marked, values filed in µg/mL are converted to µM
[1] = system: Acinetobacter baumannii 97830
[2] = system: Acinetobacter baumannii 9931
[3] = system: Acinetobacter baumannii ATCC 19606
[4] = system: Bacillus subtilis ATCC 23857
[5] = system: Escherichia coli 780
[6] = system: Escherichia coli 804
[7] = system: Klebsiella pneumoniae ATCC 700603
[8] = system: Pseudomonas aeruginosa 50
[9] = system: Pseudomonas aeruginosa 73
[10] = system: Pseudomonas aeruginosa ATCC 27853
[11] = system: Pseudomonas aeruginosa ATCC 9027
[12] = system: Staphylococcus aureus 113
[13] = system: Staphylococcus aureus 75
[14] = system: Staphylococcus aureus ATCC 29213
[15] = system: Staphylococcus epidermidis ATCC 12228
[16] = system: Escherichia coli ATCC 25922
[17] = system: Staphylococcus aureus FDA 209P
[18] = system: Acinetobacter baumannii b-01
[19] = system: Acinetobacter baumannii b-02
[20] = system: Acinetobacter baumannii b-03
[21] = system: Acinetobacter baumannii b-04
[22] = system: Pseudomonas aeruginosa
[23] = system: Bacillus cereus DSM 4222
[24] = system: Bacillus cereus DSM 4312
[25] = system: Bacillus subtilis ATCC 6051
[26] = system: Clostridium perfringens ATCC 13124
[27] = system: Clostridium perfringens DSM 11784
[28] = system: Escherichia coli ATCC 35150
[29] = system: Escherichia coli NCTC 13452
[30] = system: Escherichia coli NEB5alpha
[31] = system: Listeria monocytogenes SLCC 5581
[32] = system: Listeria monocytogenes
[33] = system: Pseudomonas fluorescens DSM 50124
[34] = system: Pseudomonas putida DSM 291
[35] = system: Salmonella enterica subsp. enterica serovar Typhimurium DSM 554
[36] = system: Salmonella typhimurium DSM 19587
[37] = system: Staphylococcus aureus ATCC 3300
[38] = system: Staphylococcus aureus DSM 2569

- MIC [1]: ≥ 128 µM
- MIC [2]: ≥ 64 µM
- MIC [3]: 128 µM (≈ 168 µg/mL)
- MIC [4]: 4 µM (≈ 5.26 µg/mL)
- MIC [5]: ≥ 32 µM
- MIC [6]: ≥ 32 µM
- MIC [7]: 128 µM (≈ 168 µg/mL)
- MIC [8]: ≥ 128 µM
- MIC [9]: ≥ 128 µM
- MIC [10]: > 128 µM
- MIC [11]: 128 µM (≈ 168 µg/mL)
- MIC [12]: 8 µM (≈ 10.5 µg/mL)
- MIC [13]: 8 µM (≈ 10.5 µg/mL)
- MIC [14]: 2 µM (≈ 2.63 µg/mL)
- MIC [15]: 4 µM (≈ 5.26 µg/mL)
Structure (SMILES): NCC(=O)N[C@@H](CCCN=C(N)N)C(=O)N[C@@H](CCCN=C(N)N)C(=O)N[C@@H](Cc1c[nH]c2ccccc12)C(=O)N[C@@H](Cc1c[nH]c2ccccc12)C(=O)N[C@@H](Cc1c[nH]c2ccccc12)C(=O)N[C@@H](CCCN=C(N)N)C(=O)N[C@@H](CCCN=C(N)N)C(=O)NCC(N)=O [GRRWWWRRG]

- MIC [16]: 1.1 µM (≈ 4.24 µg/mL)
- MIC [17]: 2.6 µM (≈ 10 µg/mL)
Structure (SMILES): CC[C@H](C)[C@H](NC(=O)[C@H](CCSC)NC(=O)[C@H](CCCCN)NC(=O)[C@@H](NC(=O)[C@H](C)NC(=O)CNC(=O)[C@H](CCCCN)NC(=O)[C@@H](NC(=O)[C@H](CC(C)C)NC(=O)[C@@H](NC(=O)[C@H](Cc1ccccc1)NC(=O)[C@H](CC(C)C)NC(=O)CN)[C@@H](C)O)[C@@H](C)CC)C(C)C)C(=O)NCC(=O)N[C@@H](CCCCN)C(=O)N[C@H](C(=O)N[C@H](C(=O)N[C@@H](C)C(=O)N[C@@H](CCCCN)C(=O)N[C@@H](CCC(=O)O)C(=O)N[C@@H](C)C(=O)NCC(=O)N[C@@H](CCCCN)C(=O)N[C@H](C(=O)NCC(=O)N[C@@H](CC(C)C)C(=O)N[C@@H](CCC(=O)O)C(=O)N[C@@H](CC(C)C)C(=O)N[C@@H](CCSC)C(=O)N[C@@H](C)C(=O)N[C@H]1CSSC[C@@H](C(=O)O)NC(=O)[C@H](CCC(N)=O)NC(=O)[C@H](CC(N)=O)NC(=O)[C@H]([C@@H](C)O)NC(=O)[C@H](C(C)C)NC(=O)[C@H](CCCCN)NC1=O)[C@@H](C)O)C(C)C)[C@@H](C)O [GLFTLIKGAVKMIGKTVAKEAGKTGLELMACKVTNQC]

- MIC [18]: 1.27 µM (≈ 3.12 µg/mL)
- MIC [19]: 2.55 µM (≈ 6.25 µg/mL)
- MIC [20]: 2.55 µM (≈ 6.25 µg/mL)
- MIC [21]: 1.27 µM (≈ 3.12 µg/mL)
- MIC [22]: 1.27 µM (≈ 3.12 µg/mL)
Structure (SMILES): CC[C@H](C)[C@H](NC(=O)[C@H](Cc1ccccc1)NC(=O)[C@H](CO)NC(=O)[C@H](CCCCN)NC(=O)[C@H](Cc1c[nH]c2ccccc12)NC(=O)[C@@H](N)CCCCN)C(=O)N[C@@H](CCCCN)C(=O)N[C@@H](CCCCN)C(=O)N[C@@H](CC(C)C)C(=O)N[C@H](C(=O)N[C@@H](CO)C(=O)N[C@@H](CCCCN)C(=O)N[C@@H](Cc1ccccc1)C(=O)N[C@@H](CC(C)C)C(=O)N[C@@H](Cc1cnc[nH]1)C(=O)N[C@@H](CO)C(=O)N[C@@H](C)C(=O)N[C@@H](CCCCN)C(=O)N[C@@H](CCCCN)C(=O)N[C@@H](Cc1ccccc1)C(N)=O)[C@@H](C)O [KWKSFIKKLTSKFLHSAKKF]

- MIC [23]: ≥ 1000 µM
- MIC [24]: ≥ 1000 µM
- MIC [25]: 15.6 µM (≈ 33.1 µg/mL)
- MIC [26]: ≥ 125 µM
- MIC [27]: ≥ 1000 µM
- MIC [28]: ≥ 500 µM
- MIC [29]: ≥ 125 µM
- MIC [30]: ≥ 62.5 µM
- MIC [31]: ≥ 500 µM
- MIC [32]: ≥ 250 µM
- MIC [33]: ≥ 500 µM
- MIC [34]: ≥ 125 µM
- MIC [35]: ≥ 1000 µM
- MIC [36]: ≥ 1000 µM
- MIC [37]: ≥ 500 µM
- MIC [38]: ≥ 500 µM
Structure (SMILES): CC[C@H](C)[C@H](NC(=O)[C@@H](N)CCCN=C(N)N)C(=O)N[C@@H](CCCCN)C(=O)N[C@H](C(=O)N[C@H](C(=O)N[C@H](C(=O)N[C@@H](CO)C(=O)N[C@@H](Cc1ccccc1)C(=O)N[C@@H](CC(=O)O)C(=O)N[C@@H](CC(C)C)C(=O)N1CCC[C@H]1C(=O)N[C@@H](C)C(=O)N[C@@H](CC(C)C)C(=O)N[C@@H](CCCN=C(N)N)C(=O)N[C@@H](Cc1ccccc1)C(=O)N[C@@H](CC(C)C)C(=O)N[C@@H](CCCCN)C(=O)N[C@@H](CC(C)C)C(=O)O)[C@@H](C)O)C(C)C)[C@@H](C)O [RIKTVTSFDLPALRFLKL]
